Measured values: the supplement of paper PMC10307832

Assays:
Assay in all cases: relative viability (nuclei count vs DMSO), 5 days (fraction); higher = more cells survive
Dactolisib + Bortezomib = compound: Cn1c(=O)n(-c2ccc(C(C)(C)C#N)cc2)c2c3cc(-c4cnc5ccccc5c4)ccc3ncc21 [Dactolisib] + CC(C)C[C@H](NC(=O)[C@H](Cc1ccccc1)NC(=O)c1cnccn1)B(O)O [Bortezomib] (partner 0.002 µM)
Outline: (§1)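 Lung cancer cell lines, seeded in 1536-well plates, were treated the following day by pin tool with a single drug or with five library-drug doses (not always all listed) in √10 steps on top of a fixed anchor-drug dose. Cells were fixed and nuclei stained in one step after 5 days, and nuclei were counted. Relative viability is the nuclei count for treated wells divided by that for vehicle wells, reported as medians of duplicate plates.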

AZ505 + Crizotinib = compound: C1CCC(CC1)N(CCNCCC2=C3C(=C(C=C2)O)NC(=O)CO3)C(=O)CCNCCC4=CC(=C(C=C4)Cl)Cl [AZ505] + C[C@@H](Oc1cc(-c2cnn(C3CCNCC3)c2)cnc1N)c1c(Cl)ccc(F)c1Cl [Crizotinib] (partner 1 µM)
Outline: as §1

Dactolisib + Vorinostat = compound: Cn1c(=O)n(-c2ccc(C(C)(C)C#N)cc2)c2c3cc(-c4cnc5ccccc5c4)ccc3ncc21 [Dactolisib] + O=C(CCCCCCC(=O)Nc1ccccc1)NO [Vorinostat] (partner 1 µM)
Outline: as §1

AZ505 + Palbociclib = compound: C1CCC(CC1)N(CCNCCC2=C3C(=C(C=C2)O)NC(=O)CO3)C(=O)CCNCCC4=CC(=C(C=C4)Cl)Cl [AZ505] + CC(=O)c1c(C)c2cnc(Nc3ccc(N4CCNCC4)cn3)nc2n(C2CCCC2)c1=O [Palbociclib] (partner 0.5 µM)
Outline: as §1

Row | Cell Line | relative viability (Dactolisib + Bortezomib; first compound 0.002 µM) | relative viability (Dactolisib + Bortezomib; first compound 0.006325 µM) | relative viability (Dactolisib + Bortezomib; first compound 0.02 µM) | relative viability (Dactolisib + Bortezomib; first compound 0.06325 µM) | relative viability (Dactolisib + Bortezomib; first compound 0.2 µM) | relative viability (AZ505 + Crizotinib; first compound 0.08 µM) | relative viability (AZ505 + Crizotinib; first compound 0.253 µM) | relative viability (AZ505 + Crizotinib; first compound 0.8 µM) | relative viability (AZ505 + Crizotinib; first compound 2.53 µM) | relative viability (AZ505 + Crizotinib; first compound 8 µM) | relative viability (Dactolisib + Vorinostat; first compound 0.002 µM) | relative viability (Dactolisib + Vorinostat; first compound 0.006325 µM) | relative viability (Dactolisib + Vorinostat; first compound 0.02 µM) | relative viability (Dactolisib + Vorinostat; first compound 0.06325 µM) | relative viability (Dactolisib + Vorinostat; first compound 0.2 µM) | relative viability (AZ505 + Palbociclib; first compound 0.08 µM) | relative viability (AZ505 + Palbociclib; first compound 0.8 µM) | relative viability (AZ505 + Palbociclib; first compound 2.53 µM) | relative viability (AZ505 + Palbociclib; first compound 8 µM) | relative viability (AZ505 + Palbociclib; first compound 0.253 µM)
1 | NCI-H596 | 0.939 | 0.989 | 0.908 | 0.769 | 0.357 | 0.922 | 0.495 | 0.799 | 0.972 | 0.985 | 0.48 | 0.577 | 0.521 | 0.313 | 0.222 |  |  |  |  | 
2 | NCI-H1299 | 1.02 | 1.05 | 1.05 | 0.957 | 0.7 | 0.959 | 1.06 | 0.969 | 0.926 | 0.988 |  |  |  |  |  |  |  |  |  | 
3 | NCI-H1395 |  |  |  |  |  |  |  |  |  |  | 0.423 | 0.622 | 0.554 | 0.496 | 0.467 | 0.593 | 0.638 | 0.661 | 0.686 | 
4 | NCI-H1563 | 0.904 | 0.903 | 0.819 | 0.603 | 0.59 | 0.831 | 0.807 | 0.805 | 0.848 | 0.809 |  |  |  |  |  |  |  |  |  | 
5 | NCI-H1648 |  |  |  |  |  |  |  |  |  |  | 0.506 | 0.421 | 0.654 | 0.435 | 0.203 |  | 0.305 | 0.284 | 0.27 | 0.264
6 | NCI-H1703 | 0.321 | 0.272 | 0.159 | 0.199 | 0.213 | 0.532 | 0.716 | 0.58 | 0.58 | 0.917 |  |  |  |  |  |  |  |  |  | 
7 | NCI-H1792 | 0.872 | 0.948 | 0.936 | 0.598 | 0.313 | 0.734 | 1.08 | 0.935 | 0.928 | 1.11 |  |  |  |  |  | 0.642 | 0.619 | 0.612 | 0.696 | 
8 | NCI-H1793 |  |  |  |  |  |  |  |  |  |  | 0.794 | 0.358 | 0.293 | 0.205 | 0.197 | 0.293 | 0.3 | 0.307 | 0.347 | 0.271
9 | NCI-H1944 |  |  |  |  |  | 1.12 | 1.04 | 1.11 | 0.881 | 1.15 | 0.576 | 0.56 | 0.492 | 0.29 | 0.223 | 0.346 | 0.339 | 0.3 | 0.308 | 0.325
10 | NCI-H2170 |  |  |  |  |  | 1.07 | 1.24 | 1.12 | 1.26 | 1.22 | 0.821 | 0.815 | 0.754 | 0.613 | 0.259 | 0.38 | 0.379 | 0.401 | 0.434 | 0.39
11 | NCI-H2342 |  |  |  |  |  |  |  |  |  |  | 0.656 | 0.832 | 0.698 | 0.75 | 0.568 | 0.472 | 0.575 | 0.549 | 0.505 | 0.509
12 | SK-MES-1 |  |  |  |  |  | 0.901 | 0.967 | 0.947 | 0.904 | 0.916 | 0.954 | 1 | 0.998 | 0.504 | 0.475 | 0.31 | 0.26 | 0.294 | 0.32 | 0.316
13 | SW 900 |  |  |  |  |  |  |  |  |  |  | 0.478 | 0.443 | 0.434 | 0.216 | 0.24 | 0.542 | 0.471 | 0.509 | 0.542 | 0.505
